# Values joined by “and” are separate entries in the source; they are usually repeats but may differ in a detail not shown here. Equal values may be shown once. Where a SMILES comes first, the peptide text is derived from it. The star is where a group is joined. Cbz = O=C(OCc1ccccc1)*
# What was measured:
# Assay in all cases: cells
# COLO-829 = assay type: functional, cell-based, Homo sapiens
# Description: SANGER: Inhibition of human COLO-829 cell growth in a cell viability assay.
# D-502MG = assay type: functional, cell-based, Homo sapiens
# Description: SANGER: Inhibition of human D-502MG cell growth in a cell viability assay.
# DEL = assay type: functional, cell-based, Homo sapiens;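 also: growth inhibition of the human DEL cell line, read out with a cell viability assay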
# Description: SANGER: Inhibition of human DEL cell growth in a cell viability assay.
# ES8 = assay type: functional, cell-based, Homo sapiens;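 also: growth inhibition of human ES8 cells, read out with a cell viability assay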
# Description: SANGER: Inhibition of human ES8 cell growth in a cell viability assay.
# EW-16 = assay type: functional, cell-based, Homo sapiens;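 also: growth inhibition of human EW-16 cells, read out as cell viability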
# Description: SANGER: Inhibition of human EW-16 cell growth in a cell viability assay.
# EOL1 = assay type: functional, cell-based, Homo sapiens;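 also: growth inhibition of EoL-1 cells, read out by a cell viability assay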
# Description: SANGER: Inhibition of human EoL-1-cell cell growth in a cell viability assay.
# GB-1 = assay type: functional, cell-based, Homo sapiens;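 also: growth of GB-1 cells judged by a viability assay, IC50 marks the concentration inhibiting growth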
# Description: SANGER: Inhibition of human GB-1 cell growth in a cell viability assay.
# HCC2157 = assay type: functional, cell-based, Homo sapiens;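 also: growth inhibition of the cancer cell line, read out as cell viability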
# Description: SANGER: Inhibition of human HCC2157 cell growth in a cell viability assay.
# HCC2218 = assay type: functional, cell-based, Homo sapiens;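 also: cell viability assay read-out, with IC50 given as the concentration that inhibits growth of the cell line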
# Description: SANGER: Inhibition of human HCC2218 cell growth in a cell viability assay.
# HCE-T = assay type: functional, cell-based, Homo sapiens;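 also: cell viability assay read-out, reporting inhibition of HCE-T cell growth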
# Description: SANGER: Inhibition of human HCE-T cell growth in a cell viability assay.
# J-RT3-T3-5 = assay type: functional, cell-based, Homo sapiens;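 also: cell viability assay measuring growth inhibition of human J-RT3-T3-5 cells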
# Description: SANGER: Inhibition of human J-RT3-T3-5 cell growth in a cell viability assay.
# KARPAS-299 = assay type: functional, cell-based, Homo sapiens
# Description: SANGER: Inhibition of human KARPAS-299 cell growth in a cell viability assay.
# KARPAS-45 = assay type: functional, cell-based, Homo sapiens;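 also: inhibition of cell line growth, read out through a viability assay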
# Description: SANGER: Inhibition of human KARPAS-45 cell growth in a cell viability assay.
# KGN = assay type: functional, cell-based, Homo sapiens;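 also: growth inhibition of KGN cells, read out with a cell viability assay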
# Description: SANGER: Inhibition of human KGN cell growth in a cell viability assay.
# KLE = assay type: functional, cell-based; settings: Homo sapiens;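 also: growth inhibition of human KLE cells, read out with a cell viability assay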
# Description: SANGER: Inhibition of human KLE cell growth in a cell viability assay.
# KM-H2 = assay type: functional, cell-based, Homo sapiens;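 also: growth inhibition of KM-H2 cells, read out by a cell viability assay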
# Description: SANGER: Inhibition of human KM-H2 cell growth in a cell viability assay.
# KM12 = assay type: functional, cell-based, Homo sapiens;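 also: KM12 cell growth inhibition, read out with a cell viability assay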
# Description: SANGER: Inhibition of human KM12 cell growth in a cell viability assay.
# KNS-42 = assay type: functional, cell-based; settings: Homo sapiens;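 also: growth inhibition of KNS-42 cells, read out with a cell viability assay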
# Description: SANGER: Inhibition of human KNS-42 cell growth in a cell viability assay.
# KU812 cell line = assay type: functional, cell-based, Homo sapiens;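 also: growth inhibition of KU812 cells, read out with a cell viability assay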
# Description: SANGER: Inhibition of human KU812 cell growth in a cell viability assay.
# L-428 = assay type: functional, cell-based, Homo sapiens
# Description: SANGER: Inhibition of human L-428 cell growth in a cell viability assay.
# LB2241-RCC = assay type: functional, cell-based, Homo sapiens;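 also: cell viability assay measuring how strongly the cultured human renal carcinoma line is prevented from growing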
# Description: SANGER: Inhibition of human LB2241-RCC cell growth in a cell viability assay.
# LB831-BLC = assay type: functional, cell-based, Homo sapiens;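 also: growth inhibition of LB831-BLC cells, read out with a cell viability assay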
# Description: SANGER: Inhibition of human LB831-BLC cell growth in a cell viability assay.
# LB996-RCC = assay type: functional, cell-based, Homo sapiens
# Description: SANGER: Inhibition of human LB996-RCC cell growth in a cell viability assay.
# LS-513 = assay type: functional, cell-based, Homo sapiens
# Description: SANGER: Inhibition of human LS-513 cell growth in a cell viability assay.
# MFM-223 = assay type: functional, cell-based, Homo sapiens
# Description: SANGER: Inhibition of human MFM-223 cell growth in a cell viability assay.
# MZ7-mel = assay type: functional, cell-based, Homo sapiens;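 also: growth inhibition of human MZ7-mel cells, measured by a cell viability assay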
# Description: SANGER: Inhibition of human MZ7-mel cell growth in a cell viability assay.
# Mo = assay type: functional, cell-based, Homo sapiens
# Description: SANGER: Inhibition of human Mo-T cell growth in a cell viability assay.
# NCI-H1304 = assay type: functional, cell-based, Homo sapiens;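 also: growth inhibition of the cancer cell line, measured in a cell viability assay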
# Description: SANGER: Inhibition of human NCI-H1304 cell growth in a cell viability assay.
# NCI-H1417 = assay type: functional, cell-based, Homo sapiens;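 also: human NCI-H1417 cells, growth inhibition determined with a cell viability readout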
# Description: SANGER: Inhibition of human NCI-H1417 cell growth in a cell viability assay.
# NCI-H2171 = assay type: functional, cell-based, Homo sapiens;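 also: growth inhibition of human NCI-H2171 cells, read out by a cell viability assay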
# Description: SANGER: Inhibition of human NCI-H2171 cell growth in a cell viability assay.
# SNU1 = assay type: functional, cell-based, Homo sapiens;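 also: growth inhibition of human NCI-SNU-1 cells, measured with a cell viability assay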
# Description: SANGER: Inhibition of human NCI-SNU-1 cell growth in a cell viability assay.
# NEC8 = assay type: functional, cell-based, Homo sapiens;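 also: growth inhibition of human NEC8 cells, read out by a cell viability assay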
# Description: SANGER: Inhibition of human NEC8 cell growth in a cell viability assay.
# OVCAR-4 = assay type: functional, cell-based, Homo sapiens;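 also: growth inhibition of human OVCAR-4 cells, measured with a cell viability assay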
# Description: SANGER: Inhibition of human OVCAR-4 cell growth in a cell viability assay.
# RPMI-8866 = assay type: functional, cell-based, Homo sapiens
# Description: SANGER: Inhibition of human RPMI-8866 cell growth in a cell viability assay.
# SCC-15 = assay type: functional, cell-based, Homo sapiens;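 also: growth inhibition of SCC-15 cells, read out with a cell viability assay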
# Description: SANGER: Inhibition of human SCC-15 cell growth in a cell viability assay.
# SF-539 = assay type: functional, cell-based, Homo sapiens;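 also: Read-out is a cell viability assay, with IC50 reflecting inhibition of cell growth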
# Description: SANGER: Inhibition of human SF539 cell growth in a cell viability assay.
# SHP77 = assay type: functional, cell-based, Homo sapiens, SHP-77;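 also: growth inhibition of human SHP-77 cells measured by a cell viability assay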
# Description: SANGER: Inhibition of human SHP-77 cell growth in a cell viability assay.
# SK-MEL-1 = assay type: functional, cell-based, Homo sapiens;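 also: growth inhibition of human SK-MEL-1 cells, read out by a cell viability assay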
# Description: SANGER: Inhibition of human SK-MEL-1 cell growth in a cell viability assay.
# SK-N-FI = assay type: functional, cell-based, Homo sapiens;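 also: cell viability assay measuring growth inhibition of human SK-N-FI cells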
# Description: SANGER: Inhibition of human SK-N-FI cell growth in a cell viability assay.
# SK-UT-1 = assay type: functional, cell-based, Homo sapiens;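 also: growth inhibition of SK-UT-1 cells, measured by a cell viability assay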
# Description: SANGER: Inhibition of human SK-UT-1 cell growth in a cell viability assay.
# SNU-C2B = assay type: functional, cell-based; settings: Homo sapiens;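 also: cell viability readout used to measure compound-driven suppression of SNU-C2B cell proliferation, IC50 marking half-maximal growth inhibition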
# Description: SANGER: Inhibition of human SNU-C2B cell growth in a cell viability assay.
# SW872 = assay type: functional, cell-based, Homo sapiens;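 also: growth inhibition of SW872 cells, read out by a viability assay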
# Description: SANGER: Inhibition of human SW872 cell growth in a cell viability assay.
# SW982 = assay type: functional, cell-based; settings: Homo sapiens;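 also: growth inhibition of SW982 cells, read out with a cell viability assay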
# Description: SANGER: Inhibition of human SW982 cell growth in a cell viability assay.
# 697 = assay type: functional, cell-based, Homo sapiens
# Description: SANGER: Inhibition of human 697 cell growth in a cell viability assay.
# ATN-1 = assay type: functional, cell-based, Homo sapiens;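 also: growth inhibition of human ATN-1 cells, read out with a cell viability assay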
# Description: SANGER: Inhibition of human ATN-1 cell growth in a cell viability assay.
# TE-5 = assay type: functional, cell-based, Homo sapiens;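 also: inhibition of cell growth, read out by a cell viability assay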
# Description: SANGER: Inhibition of human TE-5 cell growth in a cell viability assay.
# TGBC1TKB = assay type: functional, cell-based, Homo sapiens;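 also: growth inhibition of TGBC1TKB cells, read out by a cell viability assay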
# Description: SANGER: Inhibition of human TGBC1TKB cell growth in a cell viability assay.
# CAS-1 = assay type: functional, cell-based, Homo sapiens;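 also: growth inhibition of CAS-1 cells, measured with a cell viability assay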
# Description: SANGER: Inhibition of human CAS-1 cell growth in a cell viability assay.
# CCRF-CEM = assay type: functional, cell-based, Homo sapiens;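 also: inhibition of CCRF-CEM cell growth, measured by a cell viability assay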
# Description: SANGER: Inhibition of human CCRF-CEM cell growth in a cell viability assay.
# COLO-684 = assay type: functional, cell-based, Homo sapiens
# Description: SANGER: Inhibition of human COLO-684 cell growth in a cell viability assay.
smiles,measurement,setting,value
O=S(=O)(O)c1ccc2cc(/N=N/c3cc(S(=O)(=O)O)c4cccnc4c3O)ccc2c1,IC50,"COLO-829; Homo sapiens, COLO-829",> 16000 nM
same,IC50,"D-502MG; Homo sapiens, D-502MG",> 16000 nM
same,IC50,"DEL; Homo sapiens, DEL",> 16000 nM
same,IC50,"ES8; Homo sapiens, ES8",> 16000 nM
same,IC50,"EW-16; Homo sapiens, EW-16",> 16000 nM
same,IC50,"EOL1; Homo sapiens, EOL1",> 16000 nM
same,IC50,"GB-1; Homo sapiens, GB-1",> 16000 nM
same,IC50,"HCC2157; Homo sapiens, HCC2157",> 16000 nM
same,IC50,"HCC2218; Homo sapiens, HCC2218",> 16000 nM
same,IC50,"HCE-T; Homo sapiens, HCE-T",> 16000 nM
same,IC50,"J-RT3-T3-5; Homo sapiens, J-RT3-T3-5",> 16000 nM
same,IC50,"KARPAS-299; Homo sapiens, KARPAS-299",> 16000 nM
same,IC50,"KARPAS-45; Homo sapiens, KARPAS-45",> 16000 nM
same,IC50,"KGN; Homo sapiens, KGN",> 16000 nM
same,IC50,KLE,> 16000 nM
same,IC50,"KM-H2; Homo sapiens, KM-H2",> 16000 nM
same,IC50,"KM12; Homo sapiens, KM12",> 16000 nM
same,IC50,KNS-42,> 16000 nM
same,IC50,"KU812 cell line; Homo sapiens, KU812",> 16000 nM
same,IC50,"L-428; Homo sapiens, L-428",> 16000 nM
same,IC50,"LB2241-RCC; Homo sapiens, LB2241-RCC",> 16000 nM
same,IC50,"LB831-BLC; Homo sapiens, LB831-BLC",> 16000 nM
same,IC50,"LB996-RCC; Homo sapiens, LB996-RCC",> 16000 nM
same,IC50,"LS-513; Homo sapiens, LS-513",> 16000 nM
same,IC50,"MFM-223; Homo sapiens, MFM-223",> 16000 nM
same,IC50,"MZ7-mel; Homo sapiens, MZ7-mel",> 16000 nM
same,IC50,"Mo; Homo sapiens, Mo",> 16000 nM
same,IC50,"NCI-H1304; Homo sapiens, NCI-H1304",> 16000 nM
same,IC50,"NCI-H1417; Homo sapiens, NCI-H1417",> 16000 nM
same,IC50,"NCI-H2171; Homo sapiens, NCI-H2171",> 16000 nM
same,IC50,"SNU1; Homo sapiens, SNU1",> 16000 nM
same,IC50,"NEC8; Homo sapiens, NEC8",> 16000 nM
same,IC50,"OVCAR-4; Homo sapiens, OVCAR-4",> 16000 nM
same,IC50,"RPMI-8866; Homo sapiens, RPMI-8866",> 16000 nM
same,IC50,"SCC-15; Homo sapiens, SCC-15",> 16000 nM
same,IC50,"SF-539; Homo sapiens, SF-539",> 16000 nM
same,IC50,"SHP77; Homo sapiens, SHP77",> 16000 nM
same,IC50,"SK-MEL-1; Homo sapiens, SK-MEL-1",> 16000 nM
same,IC50,"SK-N-FI; Homo sapiens, SK-N-FI",> 16000 nM
same,IC50,"SK-UT-1; Homo sapiens, SK-UT-1",> 16000 nM
same,IC50,SNU-C2B,> 16000 nM
same,IC50,"SW872; Homo sapiens, SW872",> 16000 nM
same,IC50,SW982,> 16000 nM
same,IC50,697; Homo sapiens,> 16000 nM
same,IC50,"ATN-1; Homo sapiens, ATN-1",> 16000 nM
same,IC50,"TE-5; Homo sapiens, TE-5",> 16000 nM
same,IC50,"TGBC1TKB; Homo sapiens, TGBC1TKB",> 16000 nM
same,IC50,"CAS-1; Homo sapiens, CAS-1",> 16000 nM
same,IC50,"CCRF-CEM; Homo sapiens, CCRF-CEM",> 16000 nM
same,IC50,"COLO-684; Homo sapiens, COLO-684",> 16000 nM
CC(C)C[C@@H](C=O)NC(=O)[C@H](CC(C)C)NC(=O)[C@H](CC(C)C)NC(=O)OCc1ccccc1 [MG-132] (Cbz-Leu-Leu-Leu-aldehyde),IC50,COLO-829; colo-829,243 nM and > 1000 nM
same,IC50,D-502MG; d-502mg,> 1000 nM
same,IC50,DEL; del,> 1000 nM
same,IC50,ES8; es8,248 nM and > 1000 nM
same,IC50,EW-16; ew-16,> 1000 nM
same,IC50,"EOL1; Homo sapiens, EOL1",> 1000 nM
same,IC50,EOL1; eol1,> 1000 nM
same,IC50,GB-1; gb-1,721 nM and > 1000 nM
same,IC50,HCC2157; hcc2157,> 1000 nM
same,IC50,"HCC2218; Homo sapiens, HCC2218",> 1000 nM
same,IC50,HCC2218; hcc2218,> 1000 nM
same,IC50,HCE-T; hce-t,> 1000 nM
same,IC50,J-RT3-T3-5; j-rt3-t3-5,> 1000 nM
same,IC50,KARPAS-299; karpas-299,> 1000 nM
same,IC50,KARPAS-45; karpas-45,> 1000 nM
same,IC50,"KGN; Homo sapiens, KGN",> 1000 nM
same,IC50,KGN; kgn,> 1000 nM
same,IC50,KLE,313 nM
same,IC50,"KM-H2; Homo sapiens, KM-H2",> 1000 nM
same,IC50,KM-H2; km-h2,> 1000 nM
same,IC50,KM12; km12,855 nM and > 1000 nM
same,IC50,"KU812 cell line; Homo sapiens, KU812",> 1000 nM
same,IC50,KU812 cell line; ku812,> 1000 nM
same,IC50,"L-428; Homo sapiens, L-428",> 1000 nM
same,IC50,L-428; l-428,> 1000 nM
same,IC50,LB2241-RCC; lb2241-rcc,142 nM and 871 nM
same,IC50,LB831-BLC; lb831-blc,193 nM and 476 nM
same,IC50,LB996-RCC; lb996-rcc,> 1000 nM
same,IC50,LS-513; ls-513,668 nM and > 1000 nM
same,IC50,MFM-223; mfm-223,> 1000 nM
same,IC50,MZ7-mel; mz7-mel,264 nM and > 1000 nM
same,IC50,Mo; mo,518 nM and > 1000 nM
same,IC50,"NCI-H1304; Homo sapiens, NCI-H1304",> 1000 nM
same,IC50,NCI-H1304; nci-h1304,> 1000 nM
same,IC50,NCI-H1417; nci-h1417,> 1000 nM
same,IC50,NCI-H2171; nci-h2171,> 1000 nM
same,IC50,SNU1; snu1,> 1000 nM
same,IC50,NEC8; nec8,120 nM and > 1000 nM
same,IC50,OVCAR-4; ovcar-4,109 nM and > 1000 nM
same,IC50,"RPMI-8866; Homo sapiens, RPMI-8866",> 1000 nM
same,IC50,RPMI-8866; rpmi-8866,> 1000 nM
same,IC50,SCC-15; scc-15,> 1000 nM
same,IC50,SF-539; sf-539,> 1000 nM
same,IC50,SHP77; shp-77,> 1000 nM
same,IC50,"SK-MEL-1; Homo sapiens, SK-MEL-1",> 1000 nM
same,IC50,SK-MEL-1; sk-mel-1,> 1000 nM
same,IC50,SK-N-FI; sk-n-fi,> 1000 nM
same,IC50,SK-UT-1; sk-ut-1,220 nM and > 1000 nM
same,IC50,SNU-C2B,707 nM
same,IC50,SW872; sw872,657 nM and > 1000 nM
same,IC50,SW982,> 1000 nM
same,IC50,697,> 1000 nM
same,IC50,ATN-1; atn-1,> 1000 nM
same,IC50,TE-5; te-5,143 nM and > 1000 nM
same,IC50,TGBC1TKB; tgbc1tkb,> 1000 nM and 686 nM
same,IC50,CAS-1; cas-1,155 nM and > 1000 nM
same,IC50,CCRF-CEM; ccrf-cem,477 nM and > 1000 nM
same,IC50,COLO-684; colo-684,907 nM and > 1000 nM

# — ChEMBL document CHEMBL1201861, “Genomics of Drug Sensitity in Cancer screening data, Wellcome Trust Sanger Institute”
